Measurements published in patent US20120232158A1, “METHODS OF TREATING HYPERACIDIC DISORDERS” (Yale Univeristy, priority 2008, published 2012).
“Also recorded” adds a separate entry of the source.

Assays:
Assay type in all cases: cell-based
[1] = tested on: gastric glands (gastric parietal cells); test: Acid secretion by superfused gastric glands isolated from control Casr+/+; Gcm2−/− mice (rate of recovery after acid load, BCECF); details: FIG. 1
Procedure: (§1) Male (Casr^+/+; Gcm2^−/−) or CaSR knockout (Casr^−/−; Gcm2^−/−) mice weighing 22-27 grams (upper panel) or male Sprague-Dawley rats weighing 220-275 grams (lower panel) were fasted with ad lib access to water for 18 hours prior to experimentation. The animals were exposed to an overdose of isofluorane and the stomach was removed by a total gastrectomy. The corpus was removed from the stomach and sectioned at 4° C. All mice were generated at Yale University from a breeding colony. Male Sprague-Dawley rats were purchased from Charles River Laboratories Inc. (Wilmington, Mass.). All animals were cared for according to the standard protocols of the Yale University Animal Care and Use Committee.
(§2) The HEPES-Ringer solution contained (in mmol/L): NaCl 125; KCl 5; MgCl2 0.5; HEPES 22, CaCl2 0.1 or 1.6; glucose 10, pH=7.4. […]
(§3) Individual gastric glands were hand dissected and transferred to the stage of an inverted microscope where they were loaded with the intracellular pH marker BCECF. […] The rate of recover was then calculated in the presence or absence of the calcimimetic Compound A at either 10 or 100 nM concentration.
(§4) The rate of recovery in the absence of Na was recorded for each parietal cell and then summated and the mean ±SEM of the data for each gland and then for each animal determined. […] The recovery rates are determined as the rate of recovery following an acid load. […]

[2] = tested on: gastric glands (gastric parietal cells); test: Acid secretion by superfused gastric glands isolated from Sprague-Dawley rats (rate of recovery after acid load, BCECF); details: FIG. 1
Procedure: as §1, §2, §3, §4

[3] = tested on: gastric glands (gastric parietal cells); test: Acid secretion by superfused gastric glands of CaSR knockout (Casr−/−; Gcm2−/−) mice; details: glands from Casr−/−, FIG. 2; for acid secretion stimulated by natural secretagogue: 100 μM, Gcm2−/− mice
Procedure: as §1
The HEPES-Ringer solution contained (in mmol/L): NaCl 125; KCl 5; MgCl2 0.5; HEPES 22, CaCl2 0.1 or 1.6; glucose 10, pH=7.4. The solution was bubbled with 100% O2. 2′,7′-bis′(carboxyethyl)-5-(6)-carboxyfluorescein (BCECF) from Invitrogen (Seattle, Wash., USA) and stock solutions were prepared in dimethyl sulphoxide (DMSO).
(§5) Individual gastric glands were hand dissected and transferred to the stage of an inverted microscope where they were loaded with the intracellular pH marker BCECF. Once loaded with the dye the glands were superfused with normal HEPES Ringer solution at 37° C. and at a pH of 7.4 for 5 minutes. The glands were then challenged with 20 mM NH4Cl and 0 mM Na to induce an acid load within the cell. The rate of recover was then calculated in the presence or absence of the calcimimetic Compound A at either 10 or 100 nM concentration.
(§6) The rate of recovery in the absence of Na was recorded for each parietal cell and then summated and the mean ±SEM of the data for each gland and then for each animal determined. […] The recovery rates are determined as the rate of recovery following an acid load. This rate determines how fast the cell can extrude protons and provides a measure of the activity of the gastric H,K-ATPase proton pump.
Gastric acid secretion is measured in Casr^−/−; Gcm2^−/− mice that lack a functional CaSR.

[4] = tested on: gastric glands (gastric parietal cells); test: Secretagogue (histamine) induced acid secretion in superfused gastric glands from Sprague-Dawley rats; details: rat glands treated with secretagogue (histamine) first (bars B, C, D); FIG. 6
Procedure: The HEPES-Ringer solution contained (in mmol/L): NaCl 125; KCl 5; MgCl2 0.5; HEPES 22, CaCl2 0.1 or 1.6; glucose 10, pH=7.4. The solution was bubbled with 100% O2. 2′,7′-bis′(carboxyethyl)-5-(6)-carboxyfluorescein (BCECF) from Invitrogen (Seattle, Wash., USA) and stock solutions were prepared in dimethyl sulphoxide (DMSO). […]

[5] = tested on: gastric glands (gastric parietal cells); test: Secretagogue (acetyl choline) induced acid secretion in mouse gastric glands with functional CaSR; details: 100 μM acetyl choline, calcilytic at 10 or 100 nM, mice with functional CaSR (Casr+/+; Gcm2−/−), FIG. 3
[6] = tested on: gastric glands (gastric parietal cells); test: Acid secretion by superfused gastric glands from mice with constitutively active gastric H,K-ATPase proton pump; details: mice with functional CaSR and constitutively active H,K-ATPase; FIG. 5
Procedure: as §5, §6
These mice have a mutation in the gastric H,K-ATPase proton pump that renders the pump constitutively active.

COc1cccc(C(C)NCCCc2ccccc2Cl)c1 (stereo not drawn) [Compound A, 3-(2-chlorophenyl)-N-(1-(3-(methyloxy)phenyl)ethyl)-1-propanamine]
concentration dependence of the effect on acid secretion [1]: concentration dependent | concentration dependence of the effect on acid secretion [2]: concentration dependent | effect on basal acid secretion ([3]; Gcm2−/− mice lacking functional CaSR): unable to increase acid secretion | effect on secretagogue induced acid secretion [4]: decreased acid secretion

CC(C)(Cc1ccc2ccccc2c1)NCC(O)COc1cccc(Cl)c1C#N (stereo not drawn) [Compound B, 2-chloro-6-(2-hydroxy-3-(2-methyl-1-(naphthalen-2-yl)propan-2-ylamino)propoxy)benzonitrile]
inhibition of secretagogue induced acid secretion [5]: inhibition of acid secretion in a concentration dependent fashion | inhibition of secretagogue induced acid secretion ([5]; listed as compound B): reduces acid secretion in a dose-dependent manner | inhibition of acid secretion [6]: suppresses gastric acid secretion in a concentration-dependent fashion; also recorded: reduce acid secretion

C[N+](C)(C)CCOC(N)=O [carbachol]
acid secretion stimulated by natural secretagogue [3]: able to increase acid secretion; also recorded: increases acid secretion

NCCc1c[nH]cn1 [histamine]
acid secretion stimulated by natural secretagogue [3]: able to increase acid secretion; also recorded: increases acid secretion
